# Reference: patent EP4810052A2, “HCRHR2 SELECTIVE POLYPEPTIDES” (Gubra A/S, priority 2023, dated 2026)
# Starred links: 1 amine or outer side, 2 acyl side, 3 side chain; linkers in the order of their positions; H or OH if unused. Non-standard residues stand in square brackets, D forms with d. Residues, ends and D or L forms follow the SMILES beside them. Groups on a side chain read outwards from the residue. *: point of attachment. C20 diacid = O=C(O)CCCCCCCCCCCCCCCCCCC(=O)*; γGlu = O=C(O)[C@H](CCC(=O)[*:2])N[*:1]; NMeI = CC[C@H](C)[C@H](NC)C(=O)O; AEEA = NCCOCCOCC(=O)O; Aib = CC(C)(N)C(=O)O
# Assays:
# hCRHR1 = biological target: T1, hCRHR1 (Homo sapiens, UniProt P34998); test: HTRF cAMP assay, determination of hCRHR1 potency (peptide libraries 5 conc., purified peptides 11 conc.); assay type: cell-based; details: purified peptides; CHO-K1 cells stably expressing hCRHR1, cAMP HTRF; read-out: hCRHR1 EC50
# T1 sequence (P34998 24-415): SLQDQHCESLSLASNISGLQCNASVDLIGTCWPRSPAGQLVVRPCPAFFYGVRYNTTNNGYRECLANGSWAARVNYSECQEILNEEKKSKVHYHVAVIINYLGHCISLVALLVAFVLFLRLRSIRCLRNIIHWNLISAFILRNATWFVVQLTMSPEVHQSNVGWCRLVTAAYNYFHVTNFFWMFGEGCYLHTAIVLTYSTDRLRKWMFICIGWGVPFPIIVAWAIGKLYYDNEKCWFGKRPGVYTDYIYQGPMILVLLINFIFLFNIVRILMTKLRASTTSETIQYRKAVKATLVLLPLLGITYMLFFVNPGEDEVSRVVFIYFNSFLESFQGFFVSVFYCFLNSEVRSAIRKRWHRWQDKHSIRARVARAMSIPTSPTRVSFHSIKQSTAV
# In short: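 Cellular cAMP was read by time-resolved FRET between d2-labelled cAMP and cryptate anti-cAMP antibody. The cells were freshly thawed suspension CHO-K1 cells stably expressing human CRHR1.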
# [1] = Chemical stability of purified peptides (RP-UHPLC main peak purity loss); assay type: physicochemical; details: pH 7.5, 40°C; for Chemical stability at pH 7.5 after 14 days at 40°C (% degradation): first value of cell
# In short: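 Purity loss is the drop in RP-UHPLC main-peak area fraction (215 nm detection, C8 column at 50 °C) from time zero to day 14 and/or day 28 at 40 °C. Samples held roughly 1.0 mg/ml peptide in 50 mM phosphate, pH 7.5, with other pH targets also tested.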
# [2] = pH 7.5
# [3] = Thioflavin T fibril formation assay of purified peptides; assay type: physicochemical; details: pH 7.5, ThT assay
# In short: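 Fibril formation read as rising ThT emission at 480 nm (450 nm excitation), 4 µM ThT, over 96 h at 40°C with alternating 5-min rest and 700 rpm shaking cycles, in triplicate. Samples were 200 µM compound in 50 mM phosphate at various pH values, or co-formulated at 200 µM in semaglutide product at pH 7.4.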
# hCRHR2 = biological target: T2, hCRHR2 (Homo sapiens, UniProt Q13324); test: HTRF cAMP assay, determination of hCRHR2 potency (peptide libraries 5 conc., purified peptides 11 conc.); assay type: cell-based; details: for Selectivity ratio (hCRHR1/ hCRHR2): hCRHR1-EC50/hCRHR2-EC50; for EC50: purified peptides, CHO-K1 cells stably expressing hCRHR2, cAMP HTRF, read-out: hCRHR2 EC50
# T2 sequence (Q13324 1-411): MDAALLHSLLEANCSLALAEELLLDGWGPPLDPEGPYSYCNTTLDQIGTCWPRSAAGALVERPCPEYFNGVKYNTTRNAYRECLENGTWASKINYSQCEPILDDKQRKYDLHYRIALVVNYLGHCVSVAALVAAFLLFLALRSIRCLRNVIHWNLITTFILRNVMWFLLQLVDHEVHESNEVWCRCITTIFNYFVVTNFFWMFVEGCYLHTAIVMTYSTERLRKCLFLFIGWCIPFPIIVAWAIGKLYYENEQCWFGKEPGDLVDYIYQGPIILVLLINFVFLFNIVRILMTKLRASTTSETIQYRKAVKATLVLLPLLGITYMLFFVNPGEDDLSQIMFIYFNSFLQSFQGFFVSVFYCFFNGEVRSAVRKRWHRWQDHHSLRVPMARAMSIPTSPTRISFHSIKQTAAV
# In short: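 EC50 derived by variable-slope sigmoid regression of FRET-based cAMP data; cellular cAMP displaced d2-labelled tracer from cryptate anti-cAMP antibody. Stable human CRHR2 CHO-K1 suspension cells, revived from frozen stocks just before the run.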
EC50 (hCRHR1),Chemical stability at pH 7.5 after 14 days at 40°C (% degradation) [1],"Chemical stability at pH 7.5 after 28 days at 40°C (% degradation) ([1]; 28 days, second value of cell)","Solubility pH 7.5, target conc. =10 mg/mL (measured mg/mL) [2]",Fibrillation (pH 7.5) [3],Selectivity ratio (hCRHR1/ hCRHR2) (hCRHR2),EC50 (hCRHR2),Structure (SMILES)
> 5000 nM,-0.3%,-1.6%,8.9 mg/mL,No,>926,5.4 nM,CC[C@H](C)[C@H](N)C(=O)N[C@H](C(=O)N[C@@H](CC(C)C)C(=O)N[C@@H](CO)C(=O)N[C@@H](CC(C)C)C(=O)N[C@@H](CC(=O)O)C(=O)N[C@H](C(=O)N1CCC[C@H]1C(=O)N[C@H](C(=O)NCC(=O)N[C@@H](CC(C)C)C(=O)N[C@@H](CC(C)C)C(=O)N[C@@H](CCC(N)=O)C(=O)N[C@H](C(=O)N[C@@H](CC(C)C)C(=O)N[C@@H](CC(C)C)C(=O)N[C@@H](CCC(=O)O)C(=O)N[C@@H](CCC(N)=O)C(=O)N[C@@H](C)C(=O)N[C@@H](CCCNC(=N)N)C(=O)N[C@@H](C)C(=O)N[C@@H](CCCNC(=N)N)C(=O)N[C@@H](C)C(=O)N[C@@H](C)C(=O)N[C@@H](CCCNC(=N)N)C(=O)N[C@@H](CCC(=O)O)C(=O)N[C@@H](CCC(N)=O)C(=O)N[C@@H](C)C(=O)N[C@@H](CCCCNC(=O)COCCOCCNC(=O)COCCOCCNC(=O)CC[C@H](NC(=O)CC[C@H](NC(=O)CCCCCCCCCCCCCCCCCCC(=O)O)C(=O)O)C(=O)O)C(=O)N[C@H](C(=O)N[C@@H](CC(N)=O)C(=O)N[C@H](C(=O)N[C@@H](CCC(=O)O)C(=O)N[C@H](C(=O)N[C@@H](CC(C)C)C(=O)N[C@@H](C)C(=O)N[C@@H](CCC(=O)O)C(=O)N[C@H](C(N)=O)C(C)C)[C@@H](C)CC)[C@@H](C)CC)[C@@H](C)O)[C@@H](C)CC)[C@@H](C)CC)C(C)C)C(C)C [SEQ ID NO: 13] (H-IVLSLDVPIGLLQILLEQARARAAREQAK([AEEA-AEEA-γGlu-γGlu-C20 diacid])TNIEILAEV-NH2)
> 5000 nM,-1.4 / ND %,,10 mg/mL,No,>4167,1.2 nM,CC[C@H](C)[C@H](NC)C(=O)N[C@H](C(=O)N[C@@H](CC(C)C)C(=O)N[C@@H](CO)C(=O)N[C@@H](CC(C)C)C(=O)N[C@@H](CC(=O)O)C(=O)N[C@H](C(=O)N1CCC[C@H]1C(=O)N[C@H](C(=O)NCC(=O)N[C@@H](CC(C)C)C(=O)N[C@@H](CC(C)C)C(=O)N[C@@H](CCC(N)=O)C(=O)N[C@H](C(=O)N[C@@H](CC(C)C)C(=O)N[C@@H](CC(C)C)C(=O)N[C@@H](CCC(=O)O)C(=O)N[C@@H](CCC(N)=O)C(=O)N[C@@H](C)C(=O)N[C@@H](CCCNC(=N)N)C(=O)N[C@@H](C)C(=O)N[C@@H](CCCNC(=N)N)C(=O)N[C@@H](C)C(=O)N[C@@H](C)C(=O)N[C@@H](CCCNC(=N)N)C(=O)N[C@@H](CCC(=O)O)C(=O)N[C@@H](CCC(N)=O)C(=O)N[C@@H](C)C(=O)N[C@@H](CCCCNC(=O)COCCOCCNC(=O)COCCOCCNC(=O)CC[C@H](NC(=O)CC[C@H](NC(=O)CCCCCCCCCCCCCCCCCCC(=O)O)C(=O)O)C(=O)O)C(=O)NC(C)(C)C(=O)N[C@@H](CC(N)=O)C(=O)N[C@@H](C)C(=O)N[C@@H](CCC(=O)O)C(=O)N[C@H](C(=O)N[C@@H](CC(C)C)C(=O)N[C@@H](C)C(=O)N[C@@H](CCC(=O)O)C(=O)N[C@H](C(N)=O)C(C)C)[C@@H](C)CC)[C@@H](C)CC)[C@@H](C)CC)C(C)C)C(C)C [SEQ ID NO: 20] (H-[NMeI]VLSLDVPIGLLQILLEQARARAAREQAK([AEEA-AEEA-γGlu-γGlu-C20 diacid])[Aib]NAEILAEV-NH2)
